As a reminder, the EC50 is the concentration giving half of the maximal effect.

Structures can show the parent of a compound that is named as a salt. Where two headings read alike, the source gives them in different places.

The values below come from paper PMC6136712, “Ex vivo drug sensitivity testing as a means for drug repurposing in esophageal adenocarcinoma” (PLoS ONE, 2018).

This assay has as its system normal esophageal epithelium cell line EACN42. As to the kind of experiment: FDA library drug sensitivity testing (CellTiter-Glo, 72 h), normal control cells. The class given is cell-based, human. More on the design: key to DSS: modified drug sensitivity score (DSSmod) from dose-response curve fit. The conditions noted are these: for EC50: cell viability (ATP), max test concentration 10μM. How it is done: The normal esophageal epithelium cell line EACN42 was established in the Capobianco laboratory. The cell lines was derived from human normal epithelium and immortalized using HPV E6-E7.
Drug sensitivity testing (DST) was performed as described previously. […] Individual drugs were dissolved in 100% DMSO and tested in duplicates starting at a maximal test concentration of 10μM then over a 20,000-fold concentration range to generate dose response curves. Wells with assay buffer containing DMSO served as negative controls. 1000 exponentially growing cells were seeded per well in 384-well micro-titer plates and incubated in the presence of compounds in a humidified environment at 37°C and 5% CO2. After 72 hours of treatment, cell viability was assessed by measuring ATP levels via bioluminescence (CellTiter-Glo, Promega) according to manufactures recommendations. Interpretation of curve parameters was performed according to the modified drug sensitivity scoring (DSSmod) function developed by Swords et al. […] Given in this way, the sDSSmod incorporated information on each drug’s potency, efficacy, effect range and therapeutic index, making it possible to prioritize compounds over multiple parameters using a single numerical metric. […] All calculations and scoring routines are implemented in MatLab and additional curve fitting and statistical analyses are performed in GraphPad prism.

Where [1] appears, read: Homo sapiens, 72 h, EACN42 normal esophageal cells.
The mark [2] stands for this setting: drug sensitivity score, EACN42 normal esophageal cells, 72 h.
The mark [3] stands for this setting: EACN42 normal esophageal cells, 72 h.

For the molecule `CCCCNC(=O)NS(=O)(=O)c1ccc(C)cc1` [Tolbutamide], the response under setting [1] was half-maximal at 60 nM (EC50). For the same molecule, the DSS under setting [2] worked out at 0.
In turn, `CC(=O)O[C@H]1CC[C@@]2(C)C(=CC[C@@H]3[C@@H]2CC[C@]2(C)C(c4cccnc4)=CC[C@@H]32)C1` [Abiraterone Acetate] yielded a DSS under setting [2] of 0.
The same measure, in the same setting: the result for `CN(C)/N=N/c1[nH]cnc1C(N)=O` [Dacarbazine] reads 0; that for `C[C@H]1C[C@H]2[C@@H]3CCC4=CC(=O)C=C[C@]4(C)[C@H]3C(=O)C[C@]2(C)[C@@]1(O)C(=O)CO` [Betapar], 0.
On to `C=C1c2cccc(O)c2C(=O)C2=C(O)[C@]3(O)C(=O)C(C(N)=O)=C(O)[C@@H](N(C)C)[C@@H]3[C@@H](O)[C@H]12` [Methacycline hydrochloride], for which the EC50 under setting [1] is > 10000 nM. Besides, the DSS under setting [2] came to 0.
As for `Nc1cc(C(Cl)=C(Cl)Cl)c(S(N)(=O)=O)cc1S(N)(=O)=O` [Clorsulon], under setting [2], the DSS stood at 0.
As to `N#CC[C@H](C1CCCC1)n1cc(-c2ncnc3[nH]ccc23)cn1` [Ruxolitinib], under setting [2], the DSS stood at 0.
`CCN(CC)CCOc1ccc(C(=C(Cl)c2ccccc2)c2ccccc2)cc1` [Clomifene citrate] came in with a DSS under setting [2] of 0.
Consider `CC1=C(CC(=O)O)c2cc(F)ccc2/C1=C\c1ccc([S+](C)[O-])cc1` (stereo not drawn) [Sulindac], for which, under setting [1], the EC50 came out at 50 nM. The same molecule showed a DSS under setting [2] of 0.
The molecule `N=C(N)/N=C(\N)N1CCOCC1` [Moroxydine] registered a DSS under setting [2] of 0.
As to `CCC[C@@H]1C[C@@H](C(=O)N[C@@H]([C@H]2O[C@H](SC)[C@H](O)[C@@H](O)[C@H]2O)[C@@H](C)O)N(C)C1` [Lincomycin hydrochloride], a half-maximal response under setting [1] (EC50) required 990 nM. This molecule also returned a DSS under setting [2] of 0.
Under setting [2], `CS(=O)(=O)c1ccc(C(=O)Nc2ccc(Cl)c(-c3ccccn3)c2)c(Cl)c1` [Vismodegib] showed a DSS of 0.
The molecule `CC1=C(/C=C/C(C)=C/C=C/C(C)=C\C(=O)O)C(C)(C)CCC1` [Isotretinoin] showed a DSS under setting [2] of 0.
The same measure, in the same setting: the result for `CNC(=O)c1ccccc1Sc1ccc2c(/C=C/c3ccccn3)n[nH]c2c1` [Axitinib] reads 0; that for `CC(=O)O[C@]1(C(C)=O)CC[C@H]2[C@@H]3C[C@H](C)C4=CC(=O)CC[C@]4(C)[C@H]3CC[C@@]21C` [Medroxyprogesterone acetate], 0; that for `CN(C)c1nc(N(C)C)nc(N(C)C)n1` [Altretamine], 0.
Regarding `CS(=O)(=O)CCNCc1ccc(-c2ccc3ncnc(Nc4ccc(OCc5cccc(F)c5)c(Cl)c4)c3c2)o1` [Lapatinib], the EC50 under setting [1] worked out at 40 nM. Moreover, the DSS under setting [2] came out at 0.
On to `CC[C@]1(O)C[C@@H]2CN(CCc3c([nH]c4ccccc34)[C@@](C(=O)OC)(c3cc4c(cc3OC)N(C)[C@H]3[C@@](O)(C(=O)OC)[C@H](OC(C)=O)[C@]5(CC)C=CCN6CC[C@]43[C@@H]65)C2)C1` [Vinblastine], for which the EC50 under setting [1] was > 10000 nM. Further, under setting [2], the DSS is listed as 1.63.
In the same order, the values of `CC[C@@H]1/C=C(\C)C[C@H](C)C[C@H](OC)[C@H]2O[C@@](O)(C(=O)C(=O)N3CCCC[C@H]3C(=O)O[C@H](/C(C)=C/[C@@H]3CC[C@H](Cl)[C@H](OC)C3)[C@H](C)[C@@H](O)CC1=O)[C@H](C)C[C@@H]2OC` [Pimecrolimus] are 5300 nM and 1.11.
Take `CCC(C)n1ncn(-c2ccc(N3CCN(c4ccc(OCC5COC(Cn6cncn6)(c6ccc(Cl)cc6Cl)O5)cc4)CC3)cc2)c1=O` (stereo not drawn) [Itraconazole]: the DSS under setting [2] turned out to be 0.
Still for that read-out and setting: the result for `CC1(C)O[C@@H]2C[C@H]3[C@@H]4CCC5=CC(=O)C=C[C@]5(C)[C@@]4(F)[C@@H](O)C[C@]3(C)[C@]2(C(=O)CO)O1` [Triamcinolone Acetonide] reads 0; that for `C#Cc1cccc(Nc2ncnc3cc(OCCOC)c(OCCOC)cc23)c1` [Erlotinib HCl], 0.
Under setting [1], `Nc1nc(CC(=O)Nc2ccc(CCNC[C@H](O)c3ccccc3)cc2)cs1` [Mirabegron] returned an EC50 of 20 nM. The same molecule yielded a DSS under setting [2] of 0.
`C[C@]12CC[C@@H]3c4ccc(O)cc4C[C@@H](CCCCCCCCC[S+]([O-])CCCC(F)(F)C(F)(F)F)[C@H]3[C@@H]1CC[C@@H]2O` (stereo partly drawn) [Fulvestrant] returned a DSS under setting [2] of 0.
Same read-out and setting: the result for `C[C@@H](O[C@H]1OCCN(Cc2n[nH]c(=O)[nH]2)[C@H]1c1ccc(F)cc1)c1cc(C(F)(F)F)cc(C(F)(F)F)c1` [Aprepitant] reads 0; that for `CN1C2=CC(=O)/C(=N\NC(N)=O)C=C2CC1S(=O)(=O)[O-].[Na+]` (stereo not drawn) [Carbazochrome sodium sulfonate], 0.
For `O=C1[C@H](CC[C@H](O)c2ccc(F)cc2)[C@@H](c2ccc(O)cc2)N1c1ccc(F)cc1` [Ezetimibe], under setting [2], the DSS is on record as 0.
In turn, `Cl.Nc1ncnc2nc[nH]c12` [Adenine hydrochloride] returned an EC50 under setting [3] of 10 nM. The molecule further registered a DSS under setting [2] of 0.
Under setting [2], `NC(=O)NO` [Hydroxyurea] displayed a DSS of 0.
`Cc1nc(-c2ccc(OCC(C)C)c(C#N)c2)sc1C(=O)O` [Febuxostat]: under setting [1], the EC50 is > 10000 nM. The molecule also registered a DSS under setting [2] of 0.
In the case of `COc1cc2c(cc1O)CC[C@@H]1[C@@H]2CC[C@]2(C)[C@@H](O)CC[C@@H]12` [2-Methoxyestradiol], the EC50 under setting [1] was > 10000 nM. The molecule further displayed a DSS under setting [2] of 0.26.
Turning to `O=NN(CCCl)C(=O)NC1CCCCC1` [Lomustine], the DSS under setting [2] stood at 0.
Under setting [2], `COc1ccc2[n-]c([S@@+]([O-])Cc3ncc(C)c(OC)c3C)nc2c1.[Na+]` [Esomeprazole sodium] had a DSS of 0.
On to `CCN(CC)CCNC(=O)c1c(C)[nH]c(/C=C2\C(=O)Nc3ccc(F)cc32)c1C` [Sunitinib Malate], for which the EC50 under setting [1] was 10 nM. Under setting [2], this molecule had a DSS of 0.
As for `C[C@@H]1CCN(C(=O)CC#N)C[C@@H]1N(C)c1ncnc2[nH]ccc12` [Tofacitinib citrate], the DSS under setting [2] was 0.
Regarding `CN(C)C/C=C/C(=O)Nc1cc2c(Nc3ccc(F)c(Cl)c3)ncnc2cc1O[C@H]1CCOC1` [Afatinib], under setting [1], the EC50 worked out at 4610 nM. Under setting [2], this molecule showed a DSS of 0.12.
Regarding `CCCC(=O)[O-].[Na+]` [Sodium butyrate], the DSS under setting [2] came to 0.
Molecule `O=P1(N(CCCl)CCCl)NCCCO1` (stereo not drawn) [Cyclophosphamide monohydrate] showed a DSS of 0.
For Maraviroc, the “treatment response in words” value under setting [3] was “low or no activity”. Also, the DSS under setting [2] is 0.
`COC(=O)C1=C(C#N)NC(C)=C(C(=O)OC(C)C)C1c1cccc([N+](=O)[O-])c1` (stereo not drawn) [Nilvadipine]: the EC50 under setting [1] is 10 nM. The molecule also returned a DSS under setting [2] of 0.
For the molecule `Clc1ccc(C(c2ccccc2Cl)C(Cl)Cl)cc1` (stereo not drawn) [Mitotane], the EC50 under setting [1] came to 6 nM. For the same molecule, the DSS under setting [2] was 0.
For `Cc1ccc(Nc2nccc(N(C)c3ccc4c(C)n(C)nc4c3)n2)cc1S(N)(=O)=O` [Pazopanib], the DSS under setting [2] stood at 0.
With `CNC(=O)c1cc(Oc2ccc(NC(=O)Nc3ccc(Cl)c(C(F)(F)F)c3)cc2)ccn1` [Sorafenib], the EC50 under setting [1] came out at 9620 nM. The same molecule registered a DSS under setting [2] of 1.79.
In the same order, the values of `N#CC1(c2ccc(NC(=O)c3cccnc3NCc3ccncc3)cc2)CCCC1` [Apatinib] are 50 nM and 0.
As to `CC(O)(CS(=O)(=O)c1ccc(F)cc1)C(=O)Nc1ccc(C#N)c(C(F)(F)F)c1` (stereo not drawn) [Bicalutamide], the DSS under setting [2] is 0.
